Earlier results on 5 compounds are cited in patent publication US20040033532A1, “Use of three-dimensional crystal structure coordinates to design and synthesize domain-selective inhibitors for angiotensin-converting enzyme (ACE)” (priority 2002, published 2004).

One series concerns the target T1, rabbit liver ACE (Oryctolagus cuniculus, UniProt P12822).
T1 construct: rabbit liver ACE in vitro; from tissue; host or cells: rabbit liver
T1 sequence (P12822 34-1310): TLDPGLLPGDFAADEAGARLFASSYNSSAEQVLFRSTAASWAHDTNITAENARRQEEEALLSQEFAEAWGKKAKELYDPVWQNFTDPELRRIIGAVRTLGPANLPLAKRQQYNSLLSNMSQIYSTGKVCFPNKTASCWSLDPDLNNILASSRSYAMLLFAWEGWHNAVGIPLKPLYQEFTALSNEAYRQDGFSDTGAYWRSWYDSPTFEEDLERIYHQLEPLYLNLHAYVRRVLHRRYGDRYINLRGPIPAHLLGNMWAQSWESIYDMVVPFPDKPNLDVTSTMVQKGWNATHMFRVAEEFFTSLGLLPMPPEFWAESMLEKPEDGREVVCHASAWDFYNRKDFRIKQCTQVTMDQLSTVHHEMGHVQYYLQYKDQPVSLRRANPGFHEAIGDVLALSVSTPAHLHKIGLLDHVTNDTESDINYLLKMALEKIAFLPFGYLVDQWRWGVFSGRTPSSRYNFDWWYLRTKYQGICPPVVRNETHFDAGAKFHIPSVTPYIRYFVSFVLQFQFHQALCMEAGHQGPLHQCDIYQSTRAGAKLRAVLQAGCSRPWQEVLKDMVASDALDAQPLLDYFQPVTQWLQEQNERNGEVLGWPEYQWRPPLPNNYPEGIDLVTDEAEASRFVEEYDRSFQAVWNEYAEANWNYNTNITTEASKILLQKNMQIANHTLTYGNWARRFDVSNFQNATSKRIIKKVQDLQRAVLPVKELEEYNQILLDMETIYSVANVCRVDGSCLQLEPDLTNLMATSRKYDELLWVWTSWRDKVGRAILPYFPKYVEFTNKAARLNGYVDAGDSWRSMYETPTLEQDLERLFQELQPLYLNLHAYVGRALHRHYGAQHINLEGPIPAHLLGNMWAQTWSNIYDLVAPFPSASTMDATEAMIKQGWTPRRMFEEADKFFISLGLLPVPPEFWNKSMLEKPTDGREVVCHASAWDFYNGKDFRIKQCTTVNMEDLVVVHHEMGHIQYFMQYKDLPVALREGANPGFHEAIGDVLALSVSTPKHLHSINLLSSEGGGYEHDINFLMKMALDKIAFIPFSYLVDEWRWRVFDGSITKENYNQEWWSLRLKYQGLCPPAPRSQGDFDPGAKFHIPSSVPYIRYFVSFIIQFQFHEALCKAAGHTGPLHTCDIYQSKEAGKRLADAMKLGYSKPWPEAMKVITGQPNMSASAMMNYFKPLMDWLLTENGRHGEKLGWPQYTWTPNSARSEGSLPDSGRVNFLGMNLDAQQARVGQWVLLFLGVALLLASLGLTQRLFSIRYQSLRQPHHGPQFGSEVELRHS

The target in the next series is ACE (Homo sapiens, UniProt P12821).
Series [1] concerns ACE N domain and C domain active sites. As to conditions: N domain vs C domain.

Entries after “also recorded” stand apart in the source; their conditions may differ. Like-named read-outs stand apart in the source and are kept apart here.

ACE, sequence (P12821 30-1306, species assumed): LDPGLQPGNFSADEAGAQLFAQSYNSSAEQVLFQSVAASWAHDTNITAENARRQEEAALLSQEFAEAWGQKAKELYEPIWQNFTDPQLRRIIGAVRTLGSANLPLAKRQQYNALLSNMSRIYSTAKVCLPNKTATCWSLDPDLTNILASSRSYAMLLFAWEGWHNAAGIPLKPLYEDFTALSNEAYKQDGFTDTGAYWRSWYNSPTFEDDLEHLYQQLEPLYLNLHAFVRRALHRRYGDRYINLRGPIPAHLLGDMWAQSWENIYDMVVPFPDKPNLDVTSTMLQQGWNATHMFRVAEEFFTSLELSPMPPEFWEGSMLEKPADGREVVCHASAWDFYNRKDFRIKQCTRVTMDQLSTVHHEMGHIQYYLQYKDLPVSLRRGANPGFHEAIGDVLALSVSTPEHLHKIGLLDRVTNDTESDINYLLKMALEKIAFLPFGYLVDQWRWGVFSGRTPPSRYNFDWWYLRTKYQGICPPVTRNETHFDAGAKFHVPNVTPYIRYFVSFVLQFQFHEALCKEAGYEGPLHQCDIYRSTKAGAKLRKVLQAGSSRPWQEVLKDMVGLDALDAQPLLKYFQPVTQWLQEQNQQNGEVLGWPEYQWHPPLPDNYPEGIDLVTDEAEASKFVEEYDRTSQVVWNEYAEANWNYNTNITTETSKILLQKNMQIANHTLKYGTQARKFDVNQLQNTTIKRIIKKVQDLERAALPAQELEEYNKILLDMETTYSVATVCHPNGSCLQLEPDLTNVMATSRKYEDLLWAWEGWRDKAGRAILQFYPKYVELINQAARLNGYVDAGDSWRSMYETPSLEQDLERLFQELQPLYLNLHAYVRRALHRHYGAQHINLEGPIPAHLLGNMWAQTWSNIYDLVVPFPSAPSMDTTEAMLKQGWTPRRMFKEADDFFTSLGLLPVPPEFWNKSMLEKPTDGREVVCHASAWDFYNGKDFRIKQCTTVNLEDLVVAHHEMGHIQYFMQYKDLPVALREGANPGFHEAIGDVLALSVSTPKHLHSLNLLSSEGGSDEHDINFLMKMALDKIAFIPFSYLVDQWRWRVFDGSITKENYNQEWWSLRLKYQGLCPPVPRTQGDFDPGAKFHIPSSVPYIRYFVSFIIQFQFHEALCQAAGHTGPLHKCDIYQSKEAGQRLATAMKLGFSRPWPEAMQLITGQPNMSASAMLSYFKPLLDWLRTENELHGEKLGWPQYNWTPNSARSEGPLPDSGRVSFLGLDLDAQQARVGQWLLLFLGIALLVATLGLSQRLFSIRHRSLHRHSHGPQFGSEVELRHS

With `C[C@H](NC(=O)/C=C/c1ccccc1)C(=O)N1CCC[C@H]1C(=O)O` [Compound 1], the IC50 – broadly, the concentration needed to halve the response being measured – on rabbit liver ACE (Hip-His-Leu hydrolysis, rabbit liver ACE, in vitro) was 230000 nM. The enzyme activity remaining on rabbit liver ACE (after 10 minutes of incubation with 0.4 mM of inhibitor) is on record as around 50%. Further, on rabbit liver ACE (after dialysis), the “recovery of enzyme activity after dialysis” value is recorded as “could not be recovered”.

Turning to `CN(CC(=O)NO)C(=O)[C@@H]1CCCC[C@@H]1C(=O)O` [Compound 2], the IC50 on ACE (Hip-Gly-Gly as substrate) is 7 nM. For the same compound, the Ki (as a rule, a measure of affinity in units of concentration, obtained from inhibition or displacement) at ACE (competitive inhibitor of ACE) was 2.7 ± 0.2 nM.

As to `O=C(N[C@@H](Cc1ccccc1)C(=O)CCC(=O)N1CCC[C@H]1C(=O)O)c1ccccc1` [keto-ACE, Bz-Phe Ψ (CO—CH2)Gly-Pro], the “domain selectivity of ACE inhibition (in words)” value in series [1] is “more effective inhibitors of the C domain; also recorded: C-domain specific inhibitor”.

For the compound Ac-Asp-Phe-Ψ(PO2—CH2)-Ala-Ala-NH2, the “domain selectivity of ACE inhibition (in words)” value in series [1] is given as “far better inhibitor of the N domain”; in series [1] (listed as Ac-Asp-Phe-Ψ(PO2—CH2)-Ala-Ala), “far better inhibitor of the N-domain”.

Consider “Angiotensin (1-7) [Asp^1-Pro^7] (DRVYIHP; Angiotensin 1-7; UniProt P01019 25-31, looked up, fragment) [peptide Asp1-Pro7 of angiotensin]”, for which the “domain selectivity of ACE inhibition (in words)” value in series [1] is “more effective inhibitors of the C domain”.
